From patent publication US7560466B2, “Methods of treating or preventing autoimmune diseases with 2,4-pyrimidinediamine compounds” (Rigel Pharmaceuticals, Inc., priority 2003, dated 2009)
Counter-ions that a name gives are not always drawn. Like-named read-outs stand apart in the source and are kept apart here.

Test system: cultured human mast cells (CHMC), IgE-induced degranulation
Assay: CHMC low cell density IgE activation: tryptase assay
Assay type: cell-based
Conditions: CHMC low cell density
Description: Inhibition of degranulation was measured at both low and high cell density by quantifying the release of the granule specific factors tryptase, histamine and hexosaminidase. Inhibition of release and/or synthesis of lipid mediators was assessed by measuring the release of leukotriene LTC4 and inhibition of release and/or synthesis of cytokines was monitored by quantifying TNF-α, IL-6 and IL-13. Tryptase and hexosaminidase were quantified using fluorogenic substrates as described in their respective examples. […] The protocols of the various assays are provided below.
A second phase is performed to convert the expanded CD34-negative progenitor cells into differentiated mucosal mast cells. These mucosal cultured human mast cells (“CHMC”) are derived from CD34+ cells isolated from umbilical cord blood and treated to form a proliferated population of CD34-negative progenitor cells, as described above. […] Also, the cytokine composition of the medium was modified such that it contained SCF (200 ng/mL) and recombinant human IL-6 (200 ng/mL; Peprotech, Catalog No. 200-06 reconstituted to 100 ug/mL in sterile 10 mM acetic acid) (“CM/SCF/IL-6 medium”).
Pellet CHMC cells (980 rpm, 10 min) and resuspend in pre-warmed MT. Add 65 ul of cells to each 96-well plate. Depending on the degranulation activity for each particular CHMC donor, load 1000-1500 cells/well. Mix four times followed by a 1 hr incubation at 37° C. […] Stimulate cells by adding 25 ul of 6× anti-IgE solution to the appropriate plates. Add 25 ul MT to un-stimulated control wells. Mix twice following addition of the anti-IgE. Incubate at 37° C. for 30 minutes. […] Spin plates at 1000 rpm for 10 min to pellet cells. Transfer 25 ul of supernatant to a 96-well black bottom plate and add 100 ul of freshly diluted tryptase substrate solution to each well. Incubate plates at room temperature for 30 min.
In Table 1, all reported values are IC50s (in μM). […] In Table 1, all reported values are IC50s (in μM).

[1] = 3pt, read-out: LD Tryptase, CHMC, IgE, 3pt
[2] = 8pt, read-out: LD Tryptase, CHMC, IgE, 8pt

Row | SMILES | IC50 [1] | IC50 [2]
1 | CC1(C)Oc2ccc(Nc3nc(Nc4ccc5c(cnn5CCCN5C(=O)CCCC5=O)c4)ncc3F)nc2NC1=O [Compound 862, N4-(2,2-Dimethyl-3-oxo-4H-5-pyrid[1,4]oxazin-6-yl)-N2-[1-[3-(2,6-dioxopiperidino]propyl)indazol-5-yl]-5-fluoro-2,4-pyrimidinediamine] | < 10 µM | < 10 µM
2 | CCOCCCn1ncc2cc(Nc3ncc(F)c(Nc4ccc5c(n4)NC(=O)C(C)(C)O5)n3)ccc21 [Compound 875, N4-(2,2-Dimethyl-3-oxo-4H-5-pyrid[1,4]oxazin-6-yl)-N2-[1-(3-ethoxypropyl)indazol-5-yl]-5-fluoro-2,4-pyrimidinediamine] | < 10 µM | < 10 µM
3 | Cn1c(=O)[nH]c2cc(Nc3ncc(F)c(Nc4ccc5c(n4)NC(=O)C(C)(C)O5)n3)ccc21 [Compound 908, N4-(2,2-Dimethyl-3-oxo-4H-5-pyrid[1,4]oxazin-6-yl)-N2-(2,3-dihydro-1-methyl-2-oxo-benzimidazol-5-yl)-5-fluoro-2,4-pyrimidinediamine] | < 10 µM | < 10 µM
4 | CC1(C)Oc2ccc(Nc3nc(Nc4ccc5oncc5c4)ncc3F)nc2NC1=O [Compound 928, N2-(1,2-Benzisoxazol-5-yl)-N4-(2,2-dimethyl-3-oxo-4H-5-pyrido[1,4]oxazin-6-yl)-5-fluoro-2,4-pyrimidinediamine] |  | < 10 µM
5 | CCn1c(C)nc2cc(Nc3ncc(F)c(Nc4ccc5c(n4)NC(=O)C(C)(C)O5)n3)ccc21 [Compound 936, N4-(2,2-Dimethyl-3-oxo-4H-5-pyrido[1,4]oxazin-6-yl)-N2-(1-ethyl-2-methylbenzimidazol-5-yl)-5-fluoro-2,4-pyrimidinediamine] | < 10 µM | 
6 | CC1(C)Oc2ccc(Nc3nc(Nc4ccc5c(c4)nc(C(F)(F)F)n5CCCO)ncc3F)nc2NC1=O [Compound 941, N4-(2,2-Dimethyl-3-oxo-4H-5-pyrido[1,4]oxazin-6-yl)-5-fluoro-N2-[1-(3-hydroxypropyl)-2-trifluoromethylbenzimidazol-5-yl]-2,4-pyrimidinediamine] | < 10 µM | < 10 µM
7 | C[C@@H]1Oc2ccc(Nc3nc(Nc4ccc5c(c4)nc(N4CCOCC4)n5C)ncc3F)cc2NC1=O [Compound 945, (S)-5-Fluoro-N2-[1-methyl-2-(4-morpholino)benzimidazol-5-yl]-N4-(2-methyl-3-oxo-2H,4H-benz[1,4]oxazin-6-yl)-2,4-pyrimidinediamine] | < 10 µM | < 10 µM
8 | Cn1c(N2CCOCC2)nc2cc(Nc3ncc(F)c(Nc4ccc5c(n4)NC(=O)C(C)(C)O5)n3)ccc21 [Compound 946, N4-(2,2-Dimethyl-3-oxo-4H-5-pyrido[1,4]oxazin-6-yl)-5-fluoro-N2-[1-methyl-2-(4-morpholino)benzimidazol-5-yl]-2,4-pyrimidinediamine] | < 10 µM | < 10 µM
9 | Cc1nc2cc(Nc3ncc(F)c(Nc4ccc5c(n4)NC(=O)C(C)(C)O5)n3)ccc2n1CCCO [Compound 951, N4-(2,2-Dimethyl-3-oxo-4H-5-pyrido[1,4]oxazin-6-yl)-5-fluoro-N2-[1-(3-hydroxypropyl)-2-methylbenzimidazol-5-yl]-2,4-pyrimidinediamine] | < 10 µM | < 10 µM
10 | CC(=O)NCCCn1c(C)nc2cc(Nc3ncc(F)c(Nc4ccc5c(n4)NC(=O)C(C)(C)O5)n3)ccc21 [Compound 953, N2-[1-[3-(N-Acetylamino)propyl]-2-methylbenzimidazol-5-yl]-N4-(2,2-Dimethyl-3-oxo-4H-5-pyrido[1,4]oxazin-6-yl)-5-fluoro-2,4-pyrimidinediamine] | < 10 µM | < 10 µM
11 | Cn1c(CN2CCOCC2)nc2cc(Nc3ncc(F)c(Nc4ccc5c(c4)NC(=O)C(C)(C)O5)n3)ccc21 [Compound 956, N4-(2,2-Dimethyl-3-oxo-4H-benz[1,4]oxazin-6-yl)-5-fluoro-N2-[1-methyl-2-(4-morpholinomethyl)benzimidazol-5-yl]-2,4-pyrimidinediamine] |  | < 10 µM
12 | C[C@@H]1Oc2ccc(Nc3nc(Nc4ccc5c(c4)nc(CN4CCOCC4)n5C)ncc3F)cc2NC1=O [Compound 957, (S)-5-Fluoro-N2-[1-methyl-2-(4-morpholinomethyl)benzimidazol-5-yl]-N4-(2-methyl-3-oxo-2H,4H-benz[1,4]oxazin-6-yl)--2,4-pyrimidinediamine] | < 10 µM | < 10 µM
13 | Cn1c(CN2CCOCC2)nc2cc(Nc3ncc(F)c(Nc4ccc5c(n4)NC(=O)C(C)(C)O5)n3)ccc21 [Compound 958, N4-(2,2-Dimethyl-3-oxo-4H-5-pyrido[1,4]oxazin-6-yl)-5-fluoro-N2-[1-methyl-2-(4-morpholinomethyl)benzimidazol-5-yl]-2,4-pyrimidinediamine] |  | < 10 µM
14 | Cc1nc2cc(Nc3ncc(F)c(Nc4ccc5c(n4)NC(=O)C(C)(C)O5)n3)ccc2n1CCCNS(C)(=O)=O [Compound 964, N4-(2,2-Dimethyl-3-oxo-4H-5-pyrido[1,4]oxazin-6-yl)-5-fluoro-N2-[2-methyl-1-[3-(N-methylsulfonylamino)propyl]benzimidazol-5-yl]-2,4-pyrimidinediamine] | < 10 µM | < 10 µM
15 | Cn1c(CS(C)(=O)=O)nc2cc(Nc3ncc(F)c(Nc4ccc5c(n4)NC(=O)C(C)(C)O5)n3)ccc21 [Compound 969, N4-(2,2-Dimethyl-3-oxo-4H-5-pyrido[1,4]oxazin-6-yl)-5-fluoro-N2-{1-methyl-2-[(methylsulfonyl)methyl]benzimidazol-5-yl}-2,4-pyrimidinediamine] | < 10 µM | < 10 µM
16 | CCN(CC)Cc1nc2cc(Nc3ncc(F)c(Nc4ccc5c(n4)NC(=O)C(C)(C)O5)n3)ccc2n1C [Compound 974, N2-[2-(N,N-Diethylaminomethyl)-1-methylbenzimidazol-5-yl]-N4-(2,2-dimethyl-3-oxo-4H-5-pyrido[1,4]oxazin-6-yl)-5-fluoro-2,4-pyrimidinediamine] | < 10 µM | < 10 µM
17 | CNC(=O)COc1cccc(Nc2ncc(F)c(Nc3ccc4c(n3)NC(=O)C(C)(C)O4)n2)c1 [Compound 986, N4-(2,2-Dimethyl-3-oxo-4H-5-pyrid[1,4]oxazin-6-yl)-5-fluoro-N2-[3-(N-methylamino)carbonylmethyleneoxyphenyl]-2,4-pyrimidinediamine Hydrogen Chloride Salt] | < 10 µM | < 10 µM
18 | COc1c(C)cc(Nc2ncc(F)c(Nc3ccc4c(c3)NCC(C)(C)O4)n2)cc1Cl [Compound 1001, N2-(3-Chloro-4-methoxy-5-methylphenyl)-N4-(3,4-dihydro-2,2-dimethyl-4H-benz[1,4]oxazin-6-yl)-5-fluoro-2,4-pyrimidinediamine] |  | < 10 µM
19 | COc1cc(Nc2ncc(F)c(Nc3ccc4c(c3)NCC(C)(C)O4)n2)cc(OC)c1 [Compound 1002, N4-(3,4-Dihydro-2,2-dimethyl-4H-benz[1,4]oxazin-6-yl)-N2-(3,5-dimethoxyphenyl)-5-fluoro-2,4-pyrimidinediamine] |  | < 10 µM
20 | CC(C)c1cccc(Nc2ncc(F)c(Nc3ccc4c(n3)NC(=O)C(C)(C)O4)n2)c1 [Compound 1003, N4-(2,2-Dimethyl-3-oxo-4H-5-pyrid[1,4]oxazin-6-yl)-5-fluoro-N2-(3-isopropylphenyl)-2,4-pyrimidinediamine] | < 10 µM | < 10 µM
